Tests used:
PANC-1 cells [1] = assay: Cell proliferation (cell counting) after siRNA knockdown in PANC-1 cells; format: cell-based; conditions: 10 to 50 nM siRNA tested, cell number 4 days after transfection, FIG. 1
Method: (§1) 1×10^6 PANC-1 cells were plated on a 10 cm dish, and culturing was carried out in Roswell Park Memorial Institute 1640 (RPMI 1640, Sigma), to which 10% fetal bovine serum (Fetal bovine serum, FBS) and 5% L-glutamine were added, for 18 hours. Culturing conditions were 37° C. and 5% CO2 unless otherwise specified. Furthermore, 1×10^6 A549 cells were plated on a 10 cm dish, and culturing was carried out in Dulbecco's modified Eagle's medium (DMEM, Sigma), to which 10% FBS and 10% L-glutamine were added, for 18 hours. […]
(§2) In order to optimize the concentration of siRNA, a final concentration of 10 to 50 nM of GST-π siRNA or Akt siRNA was added to a dish containing PANC-1 cells or A549 cells flushed with 10 mL of PTI-MEM, culturing was carried out at room temperature for 5 hours, the medium was replaced (RPMI 1640 containing 5% FBS for PANC-1 cells and DMEM containing 10% FBS for A549 cells), and culturing was carried out for 2 hours. […] Subsequently, every 24 hours, the cells were detached by treatment with trypsin and harvested from the dish, and the number of cells was counted.
(§3) In order to test the effect when GST-π siRNA and Akt siRNA are made to act at the same time, a Lipofectamine/siRNA mixed solution in which GST-π siRNA and Akt siRNA were mixed was added to each of the cells in the same way as above, and the number of cells was counted. […]

A549 cells = assay: Cell proliferation (cell counting) after siRNA knockdown in A549 cells; format: cell-based; conditions: 10 to 50 nM siRNA tested, cell number 4 days after transfection, FIG. 2
Method: as §1, §2, §3

PANC-1 cells [2] = assay: Cell morphology / dead cells after siRNA knockdown in PANC-1 cells; format: cell-based; conditions: double knockdown compared with single
Method: 1×10^6 PANC-1 cells were plated on a 10 cm dish, and culturing was carried out in Roswell Park Memorial Institute 1640 (RPMI 1640, Sigma), to which 10% fetal bovine serum (Fetal bovine serum, FBS) and 5% L-glutamine were added, for 18 hours. Culturing conditions were 37° C. and 5% CO2 unless otherwise specified. Furthermore, 1×10^6 A549 cells were plated on a 10 cm dish, and culturing was carried out in Dulbecco's modified Eagle's medium (DMEM, Sigma), to which 10% FBS and 10% L-glutamine were added, for 18 hours. The respective media were replaced, and 2 hours later 20% to 30% confluent PANC-1 or A549 cells were transfected with GST-π siRNA and/or Akt siRNA using Lipofectamine RNAiMAX (Life Technologies).
A Lipofectamine/siRNA mixed solution for transfection was prepared as follows. First, 35 μL of Lipofectamine RNAiMAX and 965 μL of OPTI-MEM (Sigma) were mixed to thus prepare a Lipofectamine solution. […]
as §3

PANC-1 cells [3] = assay: Autophagy by western blot of LC3 type I/type II shift in PANC-1 cells; format: cell-based; conditions: each siRNA 10 nM, 3 days culture, FIG. 6
Method: 1×10^6 PANC-1 cells were plated on a 10 cm dish, and culturing was carried out in RPMI 1640, to which 10% FBS and 5% L-glutamine were added, for 24 hours. […] The cells on the dish were washed with ice-cooled PBS, and an ice-cooled Lysis buffer was then added to thus break the cells. The Lysis buffer was prepared by mixing 100 μL of NP-40 Alternative, PROTEIN GRADE® Detergent, 10% Solution, Sterile-Filtered (CALBIOCHEM), 500 μL of 1 M Tris-HCl (pH 7.5), 300 μL of 5 M NaCl, 20 μL of 0.5 M EDTA, and […] of sterile water. The cell lysate was collected using a cell scraper and ice-cooled for 30 minutes. During this process, inversion mixing was carried out every 10 minutes. The solution thus obtained was subjected to centrifugation at 15000 rpm and 4° C. for 15 minutes, and the supernatant was collected, thus giving a cell extract. This cell extract was subjected to western blot analysis. A reaction with a transfer membrane was carried out at 4° C. for 16 hours using anti-LC3B antibody (SIGMA) as a primary antibody. Detection of LC3 molecules was carried out using a chemiluminescent reagent after a reaction with HRP-labeled secondary antibody. Whether or not autophagy was induced was evaluated by a shift to LC3 type I (18 kDa) and type II (16 kDa).

Akt1 = Akt1 (Homo sapiens, UniProt P31749); conditions: known from literature (Barnett 2005, Lindsley 2005, Zhao 2005); cited from earlier work
Akt2 = Akt2 (Homo sapiens, UniProt P31751); conditions: known from literature (Barnett 2005, Lindsley 2005, Zhao 2005); cited from earlier work
Akt3 = Akt3 (Homo sapiens, UniProt Q9Y243); conditions: known from literature (Barnett 2005, Lindsley 2005, Zhao 2005); cited from earlier work
Sequence of Akt3 (Q9Y243 whole entry, species assumed): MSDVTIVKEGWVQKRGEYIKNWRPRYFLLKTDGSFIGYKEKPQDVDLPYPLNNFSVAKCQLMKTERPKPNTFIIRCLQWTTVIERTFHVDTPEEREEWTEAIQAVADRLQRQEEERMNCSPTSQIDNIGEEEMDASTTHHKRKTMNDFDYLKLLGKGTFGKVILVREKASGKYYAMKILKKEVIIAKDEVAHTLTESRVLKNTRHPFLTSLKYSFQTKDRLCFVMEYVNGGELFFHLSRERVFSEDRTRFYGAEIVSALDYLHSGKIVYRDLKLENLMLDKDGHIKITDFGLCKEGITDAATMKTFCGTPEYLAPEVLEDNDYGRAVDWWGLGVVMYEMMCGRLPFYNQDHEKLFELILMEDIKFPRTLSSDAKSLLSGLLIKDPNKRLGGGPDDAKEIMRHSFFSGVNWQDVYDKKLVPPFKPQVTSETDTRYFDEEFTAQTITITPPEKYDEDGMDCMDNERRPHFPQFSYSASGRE

Sequence of Akt1 (P31749 whole entry): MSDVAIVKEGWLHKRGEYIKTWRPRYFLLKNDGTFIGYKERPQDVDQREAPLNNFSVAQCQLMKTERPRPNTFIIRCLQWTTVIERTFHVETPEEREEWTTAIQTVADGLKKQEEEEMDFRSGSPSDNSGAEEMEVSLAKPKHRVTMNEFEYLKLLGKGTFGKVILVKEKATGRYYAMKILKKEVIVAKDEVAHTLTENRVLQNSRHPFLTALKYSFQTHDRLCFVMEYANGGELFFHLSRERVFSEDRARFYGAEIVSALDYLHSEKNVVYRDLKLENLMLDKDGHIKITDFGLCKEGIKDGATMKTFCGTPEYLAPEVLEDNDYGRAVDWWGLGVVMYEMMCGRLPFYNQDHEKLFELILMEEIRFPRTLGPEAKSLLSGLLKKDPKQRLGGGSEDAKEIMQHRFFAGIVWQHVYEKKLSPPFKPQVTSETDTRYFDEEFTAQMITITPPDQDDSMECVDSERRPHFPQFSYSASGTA
Sequence of Akt2 (P31751 whole entry, species assumed): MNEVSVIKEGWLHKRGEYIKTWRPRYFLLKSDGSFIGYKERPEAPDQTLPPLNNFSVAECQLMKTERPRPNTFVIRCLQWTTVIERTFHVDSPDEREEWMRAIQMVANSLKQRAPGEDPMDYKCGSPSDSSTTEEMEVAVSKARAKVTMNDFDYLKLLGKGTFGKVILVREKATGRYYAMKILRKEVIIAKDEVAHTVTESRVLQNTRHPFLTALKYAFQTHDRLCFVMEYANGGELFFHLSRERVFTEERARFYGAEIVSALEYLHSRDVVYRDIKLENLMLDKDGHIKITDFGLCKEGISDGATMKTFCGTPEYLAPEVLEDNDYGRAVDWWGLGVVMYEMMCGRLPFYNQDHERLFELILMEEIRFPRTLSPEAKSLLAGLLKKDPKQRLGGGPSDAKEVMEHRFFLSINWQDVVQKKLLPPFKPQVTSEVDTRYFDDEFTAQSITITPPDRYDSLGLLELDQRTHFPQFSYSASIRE

Row | Compound | final concentration at which the cell proliferation inhibition effect almost reaches a plateau (PANC-1 cells [1]) | final concentration at which the cell proliferation inhibition effect almost reaches a plateau (A549 cells) | dead cells (floating cells) (PANC-1 cells [2]) | autophagy (shift of LC3 type I to type II) (PANC-1 cells [3]) | effect on activation and phosphorylation of Akt1 (Akt1) | effect on activation and phosphorylation of Akt2 (Akt2) | inhibition of Akt3 (Akt3)
1 | GST-π siRNA: siRNA against GST-π; sense GGGAGGCAAGACCUUCAUUtt (SEQ ID No: 1), antisense AAUGAAGGUCUUGCCUCCCtg (SEQ ID No: 2) (sense GGGAGGCAAGACCUUCAUUTT; antisense AAUGAAGGUCUUGCCUCCCTG; chemistry not given here) | ~30 nM | ~30 nM | a large number of floating cells (dead cells) | autophagy induced | – | – | –
2 | O=c1[nH]c2ccccc2n1C1CCN(Cc2ccc(-c3nc4cc5[nH]cnc5cc4nc3-c3ccccc3)cc2)CC1 [Akt Inhibitor VIII, 1,3-Dihydro-1-(1-((4-(6-phenyl-1H-imidazo[4,5-g]quinoxalin-7-yl)phenyl)methyl)-4-piperidinyl)-2H-benzimidazol-2-one] | – | – | – | – | selectively blocks activation and phosphorylation | selectively blocks activation and phosphorylation | does not inhibit
